According to the NIST ThermoML archive (doi:10.1016/j.jct.2013.02.014):

Settings: Liquid, Falling or rolling sphere viscometry

CCCCn1cc[n+](C)c1C.O=S(=O)([N-]S(=O)(=O)C(F)(F)F)C(F)(F)F
viscosity [mPa·s]
Settings	10000 kPa	15000 kPa	25000 kPa	50000 kPa	75000 kPa	100000 kPa	125000 kPa	150000 kPa
313.15 K	55.9	59.5	67.3	90.7	120.9	159.8	210.1	275
343.15 K	19.5	20.5	22.7	28.8	36.3	45.5	56.9	70.9
363.15 K	12.4	13	14.3	17.9	22.1	26.9	32.4	38.7
